Laboratory results published in patent US20170002011A1, “BENZENE SULFONAMIDES AS CCR9 INHIBITORS” (NORGINE B.V., priority 2013, published 2017).

Columns and labels:
CCR9 [1] = target: T1, CCR9 (Homo sapiens, UniProt P51686); test: FLIPR calcium flux assay using MOLT4 cells (TECK stimulation); assay type: cell-based; design: endogenous in cells; host or cells: MOLT4 (human T-cell line); settings: MOLT4 cells (a human T-cell line); Ki determined from IC50 of TECK-induced intracellular calcium increase
T1 sequence (P51686 1-369): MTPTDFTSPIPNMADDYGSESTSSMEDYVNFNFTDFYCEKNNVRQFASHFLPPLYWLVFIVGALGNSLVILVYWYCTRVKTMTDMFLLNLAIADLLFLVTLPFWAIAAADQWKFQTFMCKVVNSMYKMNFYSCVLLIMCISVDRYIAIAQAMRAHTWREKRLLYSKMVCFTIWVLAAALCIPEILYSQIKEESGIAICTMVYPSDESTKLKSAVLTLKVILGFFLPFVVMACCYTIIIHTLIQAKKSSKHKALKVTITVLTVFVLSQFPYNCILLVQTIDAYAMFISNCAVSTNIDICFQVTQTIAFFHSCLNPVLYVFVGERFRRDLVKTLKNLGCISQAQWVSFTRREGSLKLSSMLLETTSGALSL
Experimental: Biological Activity: FLIPR Assay Using MOLT4 Cells
A calcium flux assay was used to determine the ability of the compounds to interfere with the binding between CCR9 and its chemokine ligand (TECK) in MOLT4 cells (a human T-cell line). MOLT4 cells were seeded (100,000 cells/well) in coming cell culture plates (Cat #3603) in assay buffer (lx HBSS, 20 mM HEPES) containing 2.5 mM Probenecid. The plate was centrifuged at 1200 rpm for 3 minutes and incubated at 37° C./5% CO2 for 2 hours. A 0.3× Fluo-4 NW calcium dye was prepared in assay buffer containing 5 mM Probenecid and stored in the dark. Each well was loaded with 25 μL of 0.3× Fluo-4 NW calcium dye and incubated at 37 C/5% CO2 for 60 minutes and then at room temperature for 30 minutes. A half-log serially diluted concentration response curve was prepared at a 4× concentration for each (10 μM-0.1 nM final assay concentration) and 25 μL of the compound then transferred to the cells (100 μL final volume) for 60 minutes prior to stimulation (30 minutes at 37° C./5% CO2 and 30 minutes at room temperature). TECK was diluted to 5× its EC50 in assay buffer (containing 0.1% [w/v] bovine serum albumin [BSA]) and 25 μL dispensed through the FLIPR instrument to stimulate the cells (125 μL final volume). The increased in intracellular calcium levels was measured with the FLIPR instrument. The potency of the compound as CCR9 antagonist was calculated as an IC50 using GraphPad Prism software (variable slope four parameter). The Ki of the compound was determined from the IC50 values using the following equation.
(§1) Ki calculation: IC50/1+(Agonist (TECK) conc. used in assay/EC50 of agonist (TECK) generated on day of experiment)

CCR9 [2] = target: T1, CCR9; test: FLIPR calcium flux assay using hCCR9 over expressed cells (TECK stimulation); assay type: cell-based; design: expressed in transfected cells; host or cells: Chem-1 cells overexpressing hCCR9; settings: Chem1-hCCR9 overexpressing cells; Ki determined from IC50 of TECK-induced intracellular calcium increase
Experimental: Biological Activity: FLIPR Assay Using hCCR9 Over Expressed Cells
A calcium flux assay was used to determine the ability of the compounds to interfere with the binding between CCR9 and its chemokine ligand (TECK) in Cheml-hCCR9 overexpressing cells. hCCR9 overexpressing cells were seeded (25,000 cells/well) into black Poly-D-Lysine coated clear bottom 96-well plates (BD Biosciences, Cat #356640) and incubated overnight at 37° C./5% CO2 in a humidified incubator. Media was aspirated and cells washed twice with 100 μL assay buffer (1×HBSS, 20 mM HEPES) containing 2.5 mM Probenecid. A 0.3× Fluo-4 NW calcium dye was prepared in assay buffer containing 5 mM Probenecid and stored in the dark. Each well was loaded with 100 μL of 0.3× Fluo-4 NW calcium dye and incubated at 37° C./5% CO2 for 60 minutes and then at room temperature for 30 minutes. A half-log serially diluted concentration response curve was prepared at a 3× final assay concentration for each compound (10 μM−0.1 nM final assay concentration) and 50 μL of the compound then transferred to the cells (150 μL final volume) for 60 minutes prior to stimulation (30 minutes at 37° C./5% CO2 and 30 minutes at room temperature). TECK was diluted to 4× its ECso in assay buffer (containing 0.1% [w/v] bovine serum albumin[BSA]) and 50 μL dispensed through the fluorometric imaging plate reader (FLIPR) instrument to stimulate the cells (200 μL final volume). The increase in intracellular calcium levels was measured with the FLIPR instrument. The potency of the compound as a CCR9 antagonist was calculated as an IC50 using GraphPad Prism software (variable slope four parameter). The Ki of the compound was determined from the IC50 values using the following equation.
as §1

Compound | Ki (CCR9 [1]) | Ki (CCR9 [2])
Cc1ncccc1-c1cc2c(C#N)ccc(NS(=O)(=O)c3ccc(C(C)(C)C)cc3)n2n1 [Compound 204] | 37 nM | 121 nM
Cc1ccc(-c2cc3c(C#N)ccc(NS(=O)(=O)c4ccc(C(C)(C)C)cc4)n3n2)cn1 [Compound 206] | 64 nM | 128 nM
